One series has as its target T1, Flt4 (Homo sapiens, UniProt P35916).
T1 construct: purchased Upstate Biotechnology, Dundee, UK
In words: Radiometric kinase assay (Upstate panel). It counts as biochemical.

A further series concerns the target T2, Axl (Homo sapiens, UniProt P30530).
T2 construct: purchased Upstate Biotechnology, Dundee, UK
In words: Radiometric kinase assay (Upstate panel). It counts as biochemical.

The next series has as its target Aurora C (Homo sapiens, UniProt Q9UQB9). In words: HTRF-based biochemical IC50 assay. An excerpt: […]. A biotin-conjugated histone H3 peptide (Upstate Biotechnology) was used as a substrate.
In general terms: In TR-FRET formats the signal depends on donor and acceptor labels being close together.

The subject of the next series is A2780. In words: cells. To be noted: Homo sapiens, A2780, 16 h, read-out: Cell Cycle EC50. The protocol: (§1) Cells were fixed, stained, and analyzed. The percentage of cells with ≧4N DNA content as a function of concentration was fit to estimate EC50. For cell cycle analysis on nonadherent cells or cells with irregular morphology (A2780, HL-60, CCRF-CEM, and HT-29), tumor cells were seeded in 12-well tissue culture plates overnight at 37° C. […] Cells were trypsinized, collected, stained with propidium iodide, and analyzed by flow cytometry.

Another series deals with A375. In words: cells. To be noted: Homo sapiens, A-375, 16 h, read-out: Cell Cycle EC50. The protocol: as §1
Another series relates to CCRF-CEM. In words: cells. To be noted: Homo sapiens, 16 h, read-out: Cell Cycle EC50. The protocol:
as §1

For another series, the system named is Calu-6. Briefly: cells. To be noted: Homo sapiens, Calu-6, 16 h, read-out: Cell Cycle EC50. The protocol:
as §1

A further series has as its system H1299. In words: cells. To be noted: Homo sapiens, NCI-H1299, 16 h, read-out: Cell Cycle EC50. The protocol: as §1
In a further series the test system is HCT116. Briefly: cells. To be noted: Homo sapiens, HCT-116, 16 h, read-out: Cell Cycle EC50. The protocol:
as §1

The test system of another series is HL-60. Briefly: cells. To be noted: Homo sapiens, HL-60, 16 h, read-out: Cell Cycle EC50. On the procedure: as §1
Another series concerns HeLa. In words: cells. To be noted: Homo sapiens, 16 h, read-out: Cell Cycle EC50. The protocol: as §1
A further series relates to MDA-MB-231. Briefly: cells. To be noted: Homo sapiens, MDA-MB-231, 16 h, read-out: Cell Cycle EC50. The protocol:
as §1

A further series has as its system PC3. In words: cells. To be noted: Homo sapiens, PC-3, 16 h, read-out: Cell Cycle EC50. The protocol:
as §1

For the next series, the system named is pHH3 in A2780. Briefly: cells. To be noted: Homo sapiens, A2780, 1 h, read-out: pHH3 IC50. The protocol:
(§2) For analysis of pHH3 on adherent cells (HCT116, A375, and H1299), tumor cells were grown in 96-well tissue culture plates overnight at 37° C. […] Cells were fixed, permeabilized and exposed to anti-pHH3 antibody and analyzed for pHH3 staining. Data were fit to an IC50 equation. For analysis of pHH3 on nonadherent cells or cells with irregular morphology (A2780, Calu-6, and HT-29), tumor cells were seeded in 6-well tissue culture plates overnight at 37° C. […] Cells were trypsinized, collected, lysed, and analyzed by immunoblotting.

For the next series, the system named is pHH3 in A375. Briefly: cells. To be noted: Homo sapiens, A-375, 1 h, read-out: pHH3 IC50. On the procedure: as §2
The subject of a further series is pHH3 in Calu-6. Briefly: cells. To be noted: Homo sapiens, Calu-6, 1 h, read-out: pHH3 IC50. On the procedure: as §2
Another series relates to pHH3 in H1299. In words: cells. To be noted: Homo sapiens, NCI-H1299, 1 h, read-out: pHH3 IC50. The protocol:
as §2

Series [1] in a line: Distribution of compound in tumor and plasma, HCT 116 xenograft mice. It counts as in vivo, mouse. To be noted: for half-life: female, nu/nu athymic, mouse, ip, 170 mg/kg. On the procedure: The studies in Examples 20, 21, and 22 used female mice nu/nu athymic mice. Compound 1 was formulated fresh each week for dosing. […] HCT 116 colorectal carcinoma cells were implanted in the animals' right hind flanks subcutaneously with 200 μL of a 2.5×10^7 cells/mL suspension [1:1 Dulbecco's PBS (DPBS) with cells:Matrigel™. […] Dosing schedules are provided separately for each of the studies in Examples 28, 29, and 30. […] Terminal blood and tumor samples were harvested between 15 min and 96 hr. Female nu/nu athymic mice received HCT 116 colorectal cancer cell suspension (1:1 DPBS with cells:Matrigel) as a subcutaneous injection in the right hind flank. […] For HPLC-MS/MS, the detector consisted of an API4000 (Sciex/ABI, Foster City, Calif.) triple quadrapole mass spectrometer using turbo electrospray ionization.

The test system of series [2] is histone H3 phosphorylation in femur bone marrow. Briefly: pHH3 immunohistochemistry in mouse bone marrow. It counts as in vivo. To be noted: for bone marrow cells positive for pHH3, times less evident than vehicle: 170 mg/kg IP BIW×3. On the procedure:
For each study, animals were randomized by tumor volume and distributed into groups of ten animals each. […] Inhibition of histone H3 (HH3) phosphorylation was evaluated in HCT 116 xenograft tumors, mouse femur bone marrow, and mouse skin punch biopsy sections by immunohistochemistry (IHC). […] The tumors were collected 6 hrs post-dose on day 4, 11, 18 and on day 25 (one week after completion of dosing phase of the experiment). Phosphorylated histone H3 (pHH3) was detected by immunohistochemistry staining of tissue sections with the antibody # 9701 (Cell Signaling Technology, Inc.), which recognizes phosphorylation of Ser10 residue in histone H3 protein.

For series [3], the system named is pHH3 in HCT 116 xenograft tumor. Briefly: Plasma concentration versus pHH3 in tumor (Western blot, ELISA, HPLC-MS/MS). In kind it is in vivo, mouse. A general note: A western blot detects proteins with antibodies after separation by electrophoresis.
Procedure: When tumors reached an average volume of 400 mm^3, mice were sorted into randomized groups of 3 per time point. […] Tumor samples were frozen on liquid nitrogen, and ground into a fine powder. Lysis buffer containing phosphatase inhibitors was added to the tumor powder before homogenization and a snap freeze cycle. The cellular debris was removed by centrifugation, and the protein concentration was measured using the BioRad DC Protein Assay. […] Protein was transferred to PVDF membrane at a constant 30 V for 1 hr using the Invitrogen XCell II Blot Module transfer system and, upon completion, the membranes were incubated with 5% milk in TBST (Tris-buffered saline with Tween) at room temperature for 1 hr. […] Membranes were washed with TBST, and antibodies were detected with ECL Plus chemiluminescent detection system (Amersham), followed by exposure to Kodak BioMax film.
Films were visually assessed for total histone H3 (HH3) and histone H3 phosphorylation (pHH3). Total HH3 levels served as loading controls.
Phospho-histone H3 levels were determined using a commercial ELISA kit from (# KHO0671, Biosource/Invitrogen). The conditions were as described by the manufacturer with 100 μg total proteins from tumor lysates prepared as described in this Example.
Preparation of Plasma Samples. […]
Series [4] has as its system variety of mice xenograft models representing a range of tissue types. Briefly: In vivo efficacy across xenograft models (summary). To be noted: dose-dependent, well tolerated doses.
The nature of series [5]: Clinical pharmacokinetic evaluation, 3-hour infusion. In kind it is in vivo, human. The protocol:
Pharmacokinetic (PK) evaluation was performed on Days 1 and 15.

Here are results for 2 compounds from patent US20110293745A1, “AURORA KINASE INHIBITORS” (SUNESIS PHARMACEUTICALS, INC., priority 2008, published 2011).

Broadly, the IC50 is the midpoint of a concentration-inhibition curve. As usually defined, the EC50 is the midpoint of the concentration-response curve. The half-life is how long it takes for the measured level to halve.

Sequence of Aurora C (Q9UQB9 whole entry): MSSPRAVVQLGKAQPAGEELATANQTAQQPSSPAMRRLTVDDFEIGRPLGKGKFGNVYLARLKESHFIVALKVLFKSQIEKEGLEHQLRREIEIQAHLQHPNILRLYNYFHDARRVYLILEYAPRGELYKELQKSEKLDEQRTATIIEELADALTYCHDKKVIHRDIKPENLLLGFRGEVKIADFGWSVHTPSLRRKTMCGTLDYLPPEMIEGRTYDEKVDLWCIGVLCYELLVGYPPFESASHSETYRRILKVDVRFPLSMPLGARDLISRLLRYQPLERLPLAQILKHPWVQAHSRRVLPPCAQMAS
T2 sequence (P30530 26-894): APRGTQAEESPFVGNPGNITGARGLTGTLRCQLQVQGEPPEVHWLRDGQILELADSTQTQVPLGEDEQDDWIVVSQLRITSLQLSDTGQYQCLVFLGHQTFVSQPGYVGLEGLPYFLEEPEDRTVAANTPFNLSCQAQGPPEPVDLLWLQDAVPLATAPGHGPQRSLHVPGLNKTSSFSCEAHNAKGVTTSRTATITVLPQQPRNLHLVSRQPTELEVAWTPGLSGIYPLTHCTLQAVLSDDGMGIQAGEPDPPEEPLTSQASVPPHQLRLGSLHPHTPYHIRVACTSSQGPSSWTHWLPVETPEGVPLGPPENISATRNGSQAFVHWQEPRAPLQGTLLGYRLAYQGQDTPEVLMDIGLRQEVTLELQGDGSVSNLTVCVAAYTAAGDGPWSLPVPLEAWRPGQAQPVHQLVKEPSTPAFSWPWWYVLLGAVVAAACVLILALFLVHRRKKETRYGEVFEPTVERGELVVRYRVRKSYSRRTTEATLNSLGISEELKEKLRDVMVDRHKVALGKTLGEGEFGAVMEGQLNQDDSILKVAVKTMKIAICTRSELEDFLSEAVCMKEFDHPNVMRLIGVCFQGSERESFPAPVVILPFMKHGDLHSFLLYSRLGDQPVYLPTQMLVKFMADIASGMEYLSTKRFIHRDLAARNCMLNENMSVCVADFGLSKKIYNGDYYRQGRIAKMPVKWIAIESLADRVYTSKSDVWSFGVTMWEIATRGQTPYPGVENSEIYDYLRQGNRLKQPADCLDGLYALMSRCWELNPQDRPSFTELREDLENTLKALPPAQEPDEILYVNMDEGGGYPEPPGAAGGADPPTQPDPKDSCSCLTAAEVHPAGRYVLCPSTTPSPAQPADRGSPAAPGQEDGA
T1 sequence (P35916 25-1363): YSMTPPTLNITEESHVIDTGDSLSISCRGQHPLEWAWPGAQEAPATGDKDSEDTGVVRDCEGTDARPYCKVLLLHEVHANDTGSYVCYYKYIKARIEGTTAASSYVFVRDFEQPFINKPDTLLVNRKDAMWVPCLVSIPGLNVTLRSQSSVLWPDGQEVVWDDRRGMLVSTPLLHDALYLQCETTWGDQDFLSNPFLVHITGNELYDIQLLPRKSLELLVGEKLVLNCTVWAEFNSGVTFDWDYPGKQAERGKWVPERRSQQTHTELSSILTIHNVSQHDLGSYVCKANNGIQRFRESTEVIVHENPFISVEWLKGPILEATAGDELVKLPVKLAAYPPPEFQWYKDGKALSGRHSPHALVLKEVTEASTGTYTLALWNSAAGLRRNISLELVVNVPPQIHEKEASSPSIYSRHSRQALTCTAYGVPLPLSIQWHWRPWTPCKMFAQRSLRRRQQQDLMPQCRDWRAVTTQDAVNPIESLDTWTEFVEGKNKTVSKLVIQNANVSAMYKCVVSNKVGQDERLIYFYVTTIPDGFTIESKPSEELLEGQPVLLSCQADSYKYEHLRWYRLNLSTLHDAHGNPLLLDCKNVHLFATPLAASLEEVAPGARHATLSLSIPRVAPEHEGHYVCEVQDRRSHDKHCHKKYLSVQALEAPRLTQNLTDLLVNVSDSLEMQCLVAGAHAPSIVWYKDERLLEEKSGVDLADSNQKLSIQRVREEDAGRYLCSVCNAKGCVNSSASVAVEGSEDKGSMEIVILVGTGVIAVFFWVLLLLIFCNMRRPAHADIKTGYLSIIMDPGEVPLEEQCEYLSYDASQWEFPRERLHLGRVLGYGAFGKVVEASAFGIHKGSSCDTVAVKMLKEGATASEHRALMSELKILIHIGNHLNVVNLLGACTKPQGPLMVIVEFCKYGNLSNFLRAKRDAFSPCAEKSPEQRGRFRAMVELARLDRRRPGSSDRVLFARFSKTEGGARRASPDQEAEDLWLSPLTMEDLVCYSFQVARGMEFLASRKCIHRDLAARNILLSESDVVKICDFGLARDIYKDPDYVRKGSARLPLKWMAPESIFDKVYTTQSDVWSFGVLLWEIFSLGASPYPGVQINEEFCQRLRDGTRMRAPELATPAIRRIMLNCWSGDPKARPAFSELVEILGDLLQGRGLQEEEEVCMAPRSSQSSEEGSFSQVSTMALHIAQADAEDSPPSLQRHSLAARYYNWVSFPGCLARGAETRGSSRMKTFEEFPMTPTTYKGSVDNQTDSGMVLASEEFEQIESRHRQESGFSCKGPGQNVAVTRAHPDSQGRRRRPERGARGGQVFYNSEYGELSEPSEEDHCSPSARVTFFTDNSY

For `CS(=O)(=O)O.O=C(Nc1cccc(Cl)c1)Nc1ncc(CCNc2ncnc3ccsc23)s1` [Compound 1, 1-(3-chlorophenyl)-3-{5-[2-(thieno[3,2-d]pyrimidin-4-ylamino)ethyl]thiazo}-urea], the half-maximal inhibitory concentration (IC50) amounted to 0.014 µM on Flt4; 0.084 µM at Axl; 0.0034 µM on Aurora C (HTRF, N 1); 150 nM in the series on pHH3 in A2780; 15 nM in the series with pHH3 in A375; 60 nM in the series with pHH3 in Calu-6. In addition, the IC50 in the series with pHH3 in H1299 worked out at 58 nM. Also, the “IC50 values, Aurora kinase C (summary in words)” value on Aurora C was “low nanomolar range”. The EC50 in the series on A2780 was found to be 6.1 nM; in the series on A375, 93 nM; in the series on CCRF-CEM, 4.2 nM; in the series on Calu-6, 13 nM; in the series on H1299, 80 nM; with HCT116 it was 34 nM. For the same compound, the EC50 was determined as 7 nM with HL-60, 290 nM with HeLa, 30 nM in the series on MDA-MB-231 and 11 nM in the series with PC3. Also, the “time measurable drug levels are sustained in the HCT 116 tumor” value in series [1] (post-dose) is listed as “more than 96 hours”. The results for the “bone marrow cells positive for pHH3, times less evident than vehicle” value in series [2] (day 11) and in [2] (day 18) were 3 times and 7 times, respectively. Moreover, in series [2] (day 25), the “Histone H3 phosphorylation in bone marrow” value is recorded as “recovered to normal levels”. Further, the “time maximal inhibition of phospho-histone H3 in tumor was maintained” value in [3] (single dose of 170 mg/kg IP) is on record as “up to 24 hours”. Also, in [4], the tumor growth inhibition was 58-99%.
Take `O=C(Nc1cccc(Cl)c1)Nc1ncc(CCNc2ncnc3ccsc23)s1` [Compound 2, 1-(3-chlorophenyl)-3-{5-[2-(thieno[3,2-d]pyrimidin-4-ylamino)ethyl]thiazol-2-yl}-urea]: the half-life is 4.7 h in [1] (plasma, read-out: half-life in plasma (converted)); 7.5 h in series [1] (tumor, read-out: half-life in tumor (converted)); 7 h in series [5] (human, plasma, intravenous, patients, weekly 3-hour infusion, Days 1 and 15, read-out: terminal half-life (converted)). In series [5] (first versus third weekly dose), the “disposition following repeated administration” value was “no change in Compound 2 disposition”. Further, in series [5] (patients), the clearance entry is “moderate to low”. In addition, the “plasma concentration that produced maximal inhibition of phosphorylation of Histone H3 in tumor” value in series [3] (1 hr postdose, HCT 116 xenograft mice, FIG. 43B) was found to be 5 µM.
